Measured values from US9345732B2, “Agents derived from Holoptelea integrifolia and their compositions for the control of metabolic syndrome and associated diseases” (Laila Nutraceuticals, priority 2009, dated 2016).

Experiment: Diet induced metabolic syndrome model in SD rats (body weight, fat tissue weight, serum lipids)
Type: in vivo, Sprague Dawley Rats
Conditions: end of 8 weeks treatment, Composition-1 250 mg/kg or sibutramine 7 mg/kg (FIG. 6A)
Description: The extracts of Holoptelea integrifolia were then combined with other herbal extracts and tested for their efficacy. […] The Metabolic syndrome was induced in Sprague Dawley Rats by feeding the rats high fat and high cholesterol diet containing roasted bengal gram, sucrose, milk powder, mineral salt mixture, yeast, butter, groundnut oil and cholesterol for 8 weeks. Following 8 weeks induction phase, the animals were treated daily either with 250 mg/kg body weight of composition-1 or 7 mg/kg body weight of sibutramine in 10 mL of 0.5% CMC for further 8 weeks. The control group of animals were received only the vehicle (10 mL of 0.5% CMC) during this period.
Animals were acclimatized for 7 days prior to study initiation. […]
Following 8 weeks induction phase, the animals were treated orally with 250 mg/kg body weight of Composition-1 or 7 mg/kg body weight of sibutramine in 10 mL of 0.5% CMC for further 8 weeks. […] Body weight of individual animal was recorded weekly in the entire duration of the study. […]
Various biochemical parameters including lipid profile were tested using biochemistry reagents supplied by Human, Germany, in an automated clinical chemistry analyzer HumaStar300, Make: Human, Germany. Mean values of the biochemical parameters estimated before induction, after induction/before treatment and after treatment were measured and compared.

Q: For CC(C)CC(N(C)C)C1(c2ccc(Cl)cc2)CCC1 (stereo not shown) [Sibutramine], which serum cholesterol levels is on record?
A: statistically significant reduction
